Laboratory results: ChEMBL document CHEMBL4417635, “2-hydroxyarylamide derivative or pharmaceutically acceptable salt thereof, preparation method thereof, and pharmaceutical composition for preventing or treating cancer containing same as active ingredient” (2013)

How the values were obtained:
[1] = target: Transmembrane protease serine 4 (Homo sapiens) (UniProt Q9NRS4); assay: (§1) Inhibition of TMPRSS4 serine protease domain (Val 205 to Leu 437 residues) (unknown origin) expressed in Escherichia coli BL21 (DE3) at 30 uM using […]-Gln-Ala-Arg-7-amido-4-methylcoumarin hydrochloride substrate and measured for 5 mins at 5 mins intervals by fluorescence based assay relative to control
[2] = target: Transmembrane protease serine 4 (Homo sapiens) (UniProt Q9NRS4); assay: Inhibition of TMPRSS4 serine protease domain (Val 205 to Leu 437 residues) (unknown origin) expressed in Escherichia coli BL21 (DE3) using […]-Gln-Ala-Arg-7-amido-4-methylcoumarin hydrochloride substrate and measured for 5 mins at 5 mins intervals by fluorescence based assay relative to control
[3] = target: Transmembrane protease serine 4 (Homo sapiens) (UniProt Q9NRS4); assay: as §1, with “10” for “30”
[4] = target: Transmembrane protease serine 4 (Homo sapiens) (UniProt Q9NRS4); assay: as §1, with “100” for “30”

Chain of Transmembrane protease serine 4 (Homo sapiens) (Q9NRS4 whole entry, the tested form may be a part): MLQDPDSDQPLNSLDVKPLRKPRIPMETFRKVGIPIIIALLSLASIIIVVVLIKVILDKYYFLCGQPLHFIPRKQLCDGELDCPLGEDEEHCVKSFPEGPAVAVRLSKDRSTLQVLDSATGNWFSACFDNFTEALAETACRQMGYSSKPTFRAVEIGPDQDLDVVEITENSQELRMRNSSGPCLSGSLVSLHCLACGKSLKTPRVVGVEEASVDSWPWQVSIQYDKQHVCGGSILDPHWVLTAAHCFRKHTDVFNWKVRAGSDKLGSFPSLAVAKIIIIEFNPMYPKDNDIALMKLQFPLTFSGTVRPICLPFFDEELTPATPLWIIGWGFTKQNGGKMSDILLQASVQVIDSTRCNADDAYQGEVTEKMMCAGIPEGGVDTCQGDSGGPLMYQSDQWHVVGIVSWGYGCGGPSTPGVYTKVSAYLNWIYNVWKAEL

SMILES | inhibition [1] [%] | inhibition [2] | inhibition [3] [%] | inhibition [4] [%]
O=C(Nc1ccncc1Cl)c1cc(Cl)ccc1O | 8 | Dose-dependent effect |  | 
O=C(Nc1cc(C(F)(F)F)cc(C(F)(F)F)c1)c1cc(Cl)cc(Cl)c1O | 100 | Dose-dependent effect | 100 | 
NC(=O)c1ccc(O)c(C(=O)Nc2cc(C(F)(F)F)cc(C(F)(F)F)c2)c1 | 21 | Dose-dependent effect | 0 | 
O=C(Nc1cc(C(F)(F)F)cc(C(F)(F)F)c1)c1cc(Cl)cnc1O | 19 | Dose-dependent effect | 0 | 
O=C(Nc1ccc(C(F)(F)F)cn1)c1cc(Cl)ccc1O | 25 | Dose-dependent effect |  | 47
COc1ccc(O)c(C(=O)Nc2cc(C(F)(F)F)cc(C(F)(F)F)c2)c1 | 53 | Dose-dependent effect | 0 | 
O=C(Nc1ccccn1)c1cc(Cl)ccc1O | 0 | Dose-dependent effect |  | 11
O=C(Nc1ccc(Cl)nc1)c1cc(Cl)ccc1O | 6 | Dose-dependent effect |  | 39
O=C(Nc1cc(C(F)(F)F)cc(C(F)(F)F)c1)c1cc(-c2ccc(F)cc2F)ccc1O | 31 | Dose-dependent effect | 5 | 
O=C(Nc1ccc(C(F)(F)F)c(C(F)(F)F)c1)c1cc(Cl)ccc1O | 59 | Dose-dependent effect | 37 | 
O=C(Nc1nc(C(F)(F)F)cs1)c1cc(Cl)ccc1O | 61 | Dose-dependent effect |  | 100
O=C(Nc1cc(C(F)(F)F)cc(C(F)(F)F)c1)c1ccc(Cl)cc1O | 74 | Dose-dependent effect | 29 | 
O=C(Nc1cc(C(F)(F)F)cc(C(F)(F)F)c1)c1cc([N+](=O)[O-])ccc1O | 78 | Dose-dependent effect | 33 | 
Cc1ccc(O)c(C(=O)Nc2cc(C(F)(F)F)cc(C(F)(F)F)c2)c1 | 64 | Dose-dependent effect | 0 | 
O=C(Nc1cc(C(F)(F)F)cc(C(F)(F)F)c1)c1cnc2ccccc2c1O | 0 | Dose-dependent effect | 0 | 
N#Cc1ccc(NC(=O)c2cc(Cl)ccc2O)cc1 | 29 | Dose-dependent effect |  | 69
Nc1ccc(O)c(C(=O)Nc2cc(C(F)(F)F)cc(C(F)(F)F)c2)c1 | 30 | Dose-dependent effect | 3 | 
O=C(Nc1cc(Cl)cc(Cl)c1)c1cc(Cl)ccc1O | 58 | Dose-dependent effect | 15 | 
CC(=O)Nc1ccc(O)c(C(=O)Nc2cc(C(F)(F)F)cc(C(F)(F)F)c2)c1 | 0 | Dose-dependent effect | 0 | 
O=C(Nc1cc(Cl)c(Cl)c(Cl)c1)c1cc(Cl)ccc1O | 23 | Dose-dependent effect | 6 | 
O=C(Nc1cc(C(F)(F)F)cc(C(F)(F)F)c1)c1ccccc1O | 20 | Dose-dependent effect | 0 | 

Results, then the molecule that gave them:

inhibition [1] [%] | inhibition [2] | inhibition [3] [%] | inhibition [4] [%] | SMILES
0 | Dose-dependent effect |  | 0 | O=C(Nc1ncc(C(F)(F)F)cc1Cl)c1cc(Cl)ccc1O
4 | Dose-dependent effect | 0 |  | CC(=O)Oc1ccc(Cl)cc1C(=O)Nc1cc(C(F)(F)F)cc(C(F)(F)F)c1
93 | Dose-dependent effect | 61 |  | O=C(Nc1cc(C(F)(F)F)cc(C(F)(F)F)c1)c1cccc(Cl)c1O
13 | Dose-dependent effect |  | 75 | O=C(Nc1ccccc1)c1cc(Cl)ccc1O
84 | Dose-dependent effect | 54 |  | O=C(Nc1cc(C(F)(F)F)cc(C(F)(F)F)c1)c1cc(Br)ccc1O
63 | Dose-dependent effect | 36 |  | O=C(NCc1cc(C(F)(F)F)cc(C(F)(F)F)c1)c1cc(Cl)ccc1O
100 | Dose-dependent effect | 43 |  | O=C(Nc1cc(C(F)(F)F)cc(C(F)(F)F)c1Cl)c1cc(Cl)ccc1O
54 | Dose-dependent effect | 46 |  | O=C(Nc1cc(C(F)(F)F)ccc1C(F)(F)F)c1cc(Cl)ccc1O
94 | Dose-dependent effect | 51 |  | Cc1c(C(F)(F)F)cc(NC(=O)c2cc(Cl)ccc2O)cc1C(F)(F)F
31 | Dose-dependent effect |  | 51 | O=C(Nc1c(F)c(F)nc(F)c1F)c1cc(Cl)ccc1O
44 | Dose-dependent effect |  | 90 | O=C(Nc1nccs1)c1cc(Cl)ccc1O
44 | Dose-dependent effect |  | 56 | Cc1cc(C)cc(NC(=O)c2cc(Cl)ccc2O)c1
100 | Dose-dependent effect | 22 |  | O=C(Nc1ccc(C(F)(F)F)cc1)c1cc(Cl)ccc1O
14 | Dose-dependent effect |  | 55 | O=C(Nc1ccc(Cl)cn1)c1cc(Cl)ccc1O
53 | Dose-dependent effect | 15 |  | N#Cc1ccc(O)c(C(=O)Nc2cc(C(F)(F)F)cc(C(F)(F)F)c2)c1
79 | Dose-dependent effect | 32 |  | O=C(Nc1cc(C(F)(F)F)cc(C(F)(F)F)c1)c1ccc(C(F)(F)F)cc1O
78 | Dose-dependent effect | 33 |  | Cc1cc(Cl)cc(C(=O)Nc2cc(C(F)(F)F)cc(C(F)(F)F)c2)c1O
80 | Dose-dependent effect | 56 |  | COc1c(C(F)(F)F)cc(NC(=O)c2cc(Cl)ccc2O)cc1C(F)(F)F
77 | Dose-dependent effect | 29 |  | O=C(Nc1cccc(C(F)(F)F)c1C(F)(F)F)c1cc(Cl)ccc1O
100 | Dose-dependent effect | 40 |  | O=C(Nc1cc(C(F)(F)F)ccc1Br)c1cc(Cl)ccc1O
91 | Dose-dependent effect | 37 |  | O=C(Nc1cccc(C(F)(F)F)c1)c1cc(Cl)ccc1O
55 | Dose-dependent effect | 0 |  | O=C(Nc1cc(C(F)(F)F)cc(C(F)(F)F)c1)c1cc(F)ccc1O
85 | Dose-dependent effect | 58 |  | O=C(Nc1cc(C(F)(F)F)c(Br)c(C(F)(F)F)c1)c1cc(Cl)ccc1O
6 | Dose-dependent effect | 0 |  | O=C(Nc1cc(C(F)(F)F)cc(C(F)(F)F)c1)c1cc(Cl)ccc1OCc1ccccc1
